Data reported in patent publication US20160159816A1, “SUBSTITUTED THIENOPYRIMIDINES AND PHARMACEUTICAL USE THEREOF” (BAYER PHARMA AKTIENGESELLSCHAFT, priority 2013, published 2016).

Each compound was assayed against T1, human full-length MKNK1 (Homo sapiens, UniProt Q9BUB5, T385D) (assay: MKNK1 kinase high ATP assay (TR-FRET)). Conditions: high ATP (2 mM), after preincubation with MKNK1; compounds of the present invention (Table 1a).
T1 construct: GST (N); purchased Carna Biosciences 02-145; host or cells: insect cells, baculovirus expression system
T1 sequence (Q9BUB5 1-424 isoform Q9BUB5-2 T344D): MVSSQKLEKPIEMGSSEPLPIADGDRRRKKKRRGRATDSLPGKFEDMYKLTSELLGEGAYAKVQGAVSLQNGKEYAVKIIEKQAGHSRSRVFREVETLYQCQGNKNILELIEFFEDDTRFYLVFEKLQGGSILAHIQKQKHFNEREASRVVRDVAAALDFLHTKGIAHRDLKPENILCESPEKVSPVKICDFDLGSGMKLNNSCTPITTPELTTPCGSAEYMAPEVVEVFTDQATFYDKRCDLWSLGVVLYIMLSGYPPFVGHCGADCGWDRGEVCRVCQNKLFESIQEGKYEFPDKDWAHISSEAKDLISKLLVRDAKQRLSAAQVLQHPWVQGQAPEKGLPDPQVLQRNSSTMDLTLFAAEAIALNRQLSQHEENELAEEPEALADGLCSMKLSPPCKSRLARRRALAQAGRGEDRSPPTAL
Format: biochemical
Protocol: MKNK1-inhibitory activity at high ATP of compounds of the present invention after their preincubation with MKNK1 was quantified employing the TR-FRET-based MKNK1 high ATP assay as described in the following paragraphs.
A recombinant fusion protein of Glutathione-S-Transferase (GST, N-terminally) and human full-length MKNK1 (amino acids 1-424 and T344D of accession number BAA 19885.1), expressed in insect cells using baculovirus expression system and purified via glutathione sepharose affinity chromatography, was purchased from Carna Biosciences (product no 02-145) and used as enzyme. As substrate for the kinase reaction the biotinylated peptide biotin-Ahx-IKKRKLTRRKSLKG (C-terminus in amide form) was used, which can be purchased e.g. from the company Biosyntan (Berlin-Buch, Germany).
For the assay 50 nL of a 100 fold concentrated solution of the test compound in DMSO was pipetted into a black low volume 384 well microtiter plate (Greiner Bio-One, Frickenhausen, Germany), 2 μL of a solution of MKNK1 in aqueous assay buffer [50 mM HEPES pH 7.5, 5 mM MgCl2, 1.0 mM dithiothreitol, 0.005% (v/v) Nonidet-P40 (Sigma)] was added and the mixture was incubated for 15 min at 22° C. to allow pre-binding of the test compounds to the enzyme before the start of the kinase reaction. Then the kinase reaction was started by the addition of 3 μL of a solution of adenosine-tri-phosphate (ATP, 3.3 mM=>final conc. in the 5 μL assay volume is 2 mM) and substrate (0.1 μM=>final conc. in the 5 μL assay volume is 0.06 μM) in assay buffer and the resulting mixture was incubated for a reaction time of 30 min at 22° C. The concentration of MKNK1 was adjusted depending of the activity of the enzyme lot and was chosen appropriate to have the assay in the linear range, typical concentrations were in the range of 0.003 μg/mL. The reaction was stopped by the addition of 5 μL of a solution of TR-FRET detection reagents (5 nM streptavidine-XL665 [Cisbio Bioassays, Codolet, France] and 1 nM anti-ribosomal protein […] (pSer236)-antibody from Invitrogen [#44921G] and 1 nM LANCE EU-W1024 labeled ProteinG [Perkin-Elmer, product no. AD0071]) in an aqueous EDTA-solution (100 mM EDTA, 0.1% (w/v) bovine serum albumin in 50 mM HEPES pH 7.5).
The resulting mixture was incubated for 1 h at 22° C. to allow the formation of complex between the phosphorylated biotinylated peptide and the detection reagents. Subsequently the amount of phosphorylated substrate was evaluated by measurement of the resonance energy transfer from the Eu-chelate to the streptavidine-XL. Therefore, the fluorescence emissions at 620 nm and 665 nm after excitation at 350 nm were measured in a TR-FRET reader, e.g. a Rubystar (BMG Labtechnologies, Offenburg, Germany) or a Viewlux (Perkin-Elmer). The ratio of the emissions at 665 nm and at […] was taken as the measure for the amount of phosphorylated substrate. The data were normalised (enzyme reaction without inhibitor=0% inhibition, all other assay components but no enzyme=100% inhibition). […] Table 1a lists MKNK1 high ATP IC50 values of some compounds of the present invention.

Q: For `CC[C@]1(C(=O)N(C)C)CCc2c(sc3ncnc(Nc4cc5cn[nH]c5cc4OC)c23)C1` [Example 51, (7S) 7-Ethyl-4-[(6-methoxy-1H-indazol-5-yl)amino]-N,N-dimethyl-5,6,7,8-tetrahydro[1]benzothieno[2,3-d]pyrimidine-7-carboxamide], which IC50 is on record?
A: 1.7 nM

Q: Which IC50 does the source give for `COc1cc2[nH]ncc2cc1Nc1ncnc2sc3c(c12)CC[C@](C)(C(=O)N1CCOCC1)C3` [Example 52, (7S) {4-[(6-Methoxy-1H-indazol-5-yl)amino]-7-methyl-5,6,7,8-tetrahydro[1]benzothieno[2,3-d]pyrimidin-7-yl}(morpholin-4-yl)methanone] here?
A: 2 nM

Q: How did the IC50 turn out when `COc1cc2[nH]ncc2cc1Nc1ncnc2sc3c(c12)CC[C@@](C)(C(=O)N1CCOCC1)C3` [Example 53, (7R) {4-[(6-Methoxy-1H-indazol-5-yl)amino]-7-methyl-5,6,7,8-tetrahydro[1]benzothieno[2,3-d]pyrimidin-7-yl}(morpholin-4-yl)methanone] was run?
A: 18.9 nM

Q: With `COc1cc2[nH]ncc2cc1Nc1ncnc2sc3c(c12)CC[C@](C)(C(=O)N1CCOC[C@H]1C)C3` [Example 54, (7S) {4-[(6-Methoxy-1H-indazol-5-yl)amino]-7-methyl-5,6,7,8-tetrahydro[1]benzothieno[2,3-d]pyrimidin-7-yl}[(3R)-3-methylmorpholin-4-yl]methanone] as the compound, how does the IC50 read?
A: 4.3 nM

Q: How did the IC50 turn out when `COc1cc2[nH]ncc2cc1Nc1ncnc2sc3c(c12)CC[C@@](C)(C(=O)N1CCOC[C@H]1C)C3` [Example 55, (7R) {4-[(6-Methoxy-1H-indazol-5-yl)amino]-7-methyl-5,6,7,8-tetrahydro[1]benzothieno[2,3-d]pyrimidin-7-yl}[(3R)-3-methylmorpholin-4-yl]methanone] was run?
A: 33.3 nM

Q: For `COCCN(C)C(=O)[C@@]1(C)CCc2c(sc3ncnc(Nc4cc5cn[nH]c5cc4OC)c23)C1` [Example 56, (7S) N-(2-Methoxyethyl)-4-[(6-methoxy-1H-indazol-5-yl)amino]-N,7-dimethyl-5,6,7,8-tetrahydro[1]benzothieno[2,3-d]pyrimidine-7-carboxamide], which IC50 is on record?
A: 4.5 nM

Q: `COCCN(C)C(=O)[C@]1(C)CCc2c(sc3ncnc(Nc4cc5cn[nH]c5cc4OC)c23)C1` [Example 57, (7R) N-(2-Methoxyethyl)-4-[(6-methoxy-1H-indazol-5-yl)amino]-N,7-dimethyl-5,6,7,8-tetrahydro[1]benzothieno[2,3-d]pyrimidine-7-carboxamide] was tested. Which IC50 did it give?
A: 21.4 nM

Q: How did the IC50 turn out when `COc1cc2[nH]ncc2cc1Nc1ncnc2sc3c(c12)CC[C@](C)(C(=O)N(C)OC)C3` [Example 58, (7S) N-Methoxy-4-[(6-methoxy-1H-indazol-5-yl)amino]-N,7-dimethyl-5,6,7,8-tetrahydro[1]benzothieno[2,3-d]pyrimidine-7-carboxamide] was run?
A: 2.5 nM

Q: For `COc1cc2[nH]ncc2cc1Nc1ncnc2sc3c(c12)CC[C@@](C)(C(=O)N(C)OC)C3` [Example 59, (7R) N-Methoxy-4-[(6-methoxy-1H-indazol-5-yl)amino]-N,7-dimethyl-5,6,7,8-tetrahydro[1]benzothieno[2,3-d]pyrimidine-7-carboxamide], which IC50 is on record?
A: 12.9 nM

Q: With `COc1cc2[nH]ncc2cc1Nc1ncnc2sc3c(c12)CC[C@](C)(C(=O)N1CCC1)C3` [Example 60, (7S) Azetidin-1-yl{(7S)-4-[(6-methoxy-1H-indazol-5-yl)amino]-7-methyl-5,6,7,8-tetrahydro[1]benzothieno[2,3-d]pyrimidin-7-yl}methanone] as the compound, how does the IC50 read?
A: 3.7 nM

Q: With `COc1cc2[nH]ncc2cc1Nc1ncnc2sc3c(c12)CC[C@@](C)(C(=O)N1CCC1)C3` [Example 61, (7R) Azetidin-1-yl{(7S)-4-[(6-methoxy-1H-indazol-5-yl)amino]-7-methyl-5,6,7,8-tetrahydro[1]benzothieno[2,3-d]pyrimidin-7-yl}methanone] as the compound, how does the IC50 read?
A: 11.7 nM

Q: For `CC[C@@]1(C(=O)N2CCOCC2)CCc2c(sc3ncnc(Nc4cc5cn[nH]c5cc4OC)c23)C1` [Example 62, (7R) {7-Ethyl-4-[(6-methoxy-1H-indazol-5-yl)amino]-5,6,7,8-tetrahydro[1]benzothieno[2,3-d]pyrimidin-7-yl}(morpholin-4-yl)methanone], which IC50 is on record?
A: 31.7 nM

Q: For `CC[C@]1(C(=O)N2CCOCC2)CCc2c(sc3ncnc(Nc4cc5cn[nH]c5cc4OC)c23)C1` [Example 63, (7S) {7-Ethyl-4-[(6-methoxy-1H-indazol-5-yl)amino]-5,6,7,8-tetrahydro[1]benzothieno[2,3-d]pyrimidin-7-yl}(morpholin-4-yl)methanone], which IC50 is on record?
A: 1.8 nM

Q: Which IC50 does the source give for `CC[C@@]1(C(=O)N(C)CCOC)CCc2c(sc3ncnc(Nc4cc5cn[nH]c5cc4OC)c23)C1` [Example 64, (7R) 7-Ethyl-N-(2-methoxyethyl)-4-[(6-methoxy-1H-indazol-5-yl)amino]-N-methyl-5,6,7,8-tetrahydro[1]benzothieno[2,3-d]pyrimidine-7-carboxamide] here?
A: 26.3 nM

Q: `CC[C@]1(C(=O)N(C)CCOC)CCc2c(sc3ncnc(Nc4cc5cn[nH]c5cc4OC)c23)C1` [Example 65, (7S) 7-Ethyl-N-(2-methoxyethyl)-4-[(6-methoxy-1H-indazol-5-yl)amino]-N-methyl-5,6,7,8-tetrahydro[1]benzothieno[2,3-d]pyrimidine-7-carboxamide] was tested. Which IC50 did it give?
A: 3 nM

Q: With `CC[C@@]1(C(=O)N(C)OC)CCc2c(sc3ncnc(Nc4cc5cn[nH]c5cc4OC)c23)C1` [Example 66, (7R) 7-Ethyl-N-methoxy-4-[(6-methoxy-1H-indazol-5-yl)amino]-N-methyl-5,6,7,8-tetrahydro[1]benzothieno[2,3-d]pyrimidine-7-carboxamide] as the compound, how does the IC50 read?
A: 20.4 nM

Q: With `CC[C@]1(C(=O)N(C)OC)CCc2c(sc3ncnc(Nc4cc5cn[nH]c5cc4OC)c23)C1` [Example 67, (7S) 7-Ethyl-N-methoxy-4-[(6-methoxy-1H-indazol-5-yl)amino]-N-methyl-5,6,7,8-tetrahydro[1]benzothieno[2,3-d]pyrimidine-7-carboxamide] as the compound, how does the IC50 read?
A: 1.8 nM

Q: For `CC[C@@]1(C(=O)N2CCC2)CCc2c(sc3ncnc(Nc4cc5cn[nH]c5cc4OC)c23)C1` [Example 68, (7R) Azetidin-1-yl{(7S)-7-ethyl-4-[(6-methoxy-1H-indazol-5-yl)amino]-5,6,7,8-tetrahydro[1]benzothieno[2,3-d]pyrimidin-7-yl}methanone], which IC50 is on record?
A: 24.6 nM

Q: With `CC[C@]1(C(=O)N2CCC2)CCc2c(sc3ncnc(Nc4cc5cn[nH]c5cc4OC)c23)C1` [Example 69, (7S) Azetidin-1-yl{(7S)-7-ethyl-4-[(6-methoxy-1H-indazol-5-yl)amino]-5,6,7,8-tetrahydro[1]benzothieno[2,3-d]pyrimidin-7-yl}methanone] as the compound, how does the IC50 read?
A: 3.4 nM

Q: Which IC50 does the source give for `CC[C@@]1(C(=O)N2C[C@@H](C)O[C@@H](C)C2)CCc2c(sc3ncnc(Nc4cc5cn[nH]c5cc4OC)c23)C1` [Example 70, (7R) [(2R,6S)-2,6-Dimethylmorpholin-4-yl]{7-ethyl-4-[(6-methoxy-1H-indazol-5-yl)amino]-5,6,7,8-tetrahydro[1]benzothieno[2,3-d]pyrimidin-7-yl}methanone] here?
A: 50.9 nM

Q: Which IC50 does the source give for `CC[C@]1(C(=O)N2C[C@@H](C)O[C@@H](C)C2)CCc2c(sc3ncnc(Nc4cc5cn[nH]c5cc4OC)c23)C1` [Example 71, (7S) [(2R,6S)-2,6-Dimethylmorpholin-4-yl]{7-ethyl-4-[(6-methoxy-1H-indazol-5-yl)amino]-5,6,7,8-tetrahydro[1]benzothieno[2,3-d]pyrimidin-7-yl}methanone] here?
A: 1.6 nM

Q: With `CC[C@@]1(C(=O)N(C)C(C)C)CCc2c(sc3ncnc(Nc4cc5cn[nH]c5cc4OC)c23)C1` [Example 72, (7R) 7-Ethyl-N-isopropyl-4-[(6-methoxy-1H-indazol-5-yl)amino]-N-methyl-5,6,7,8-tetrahydro[1]benzothieno[2,3-d]pyrimidine-7-carboxamide] as the compound, how does the IC50 read?
A: 38.4 nM

Q: Which IC50 does the source give for `CC[C@]1(C(=O)N(C)C(C)C)CCc2c(sc3ncnc(Nc4cc5cn[nH]c5cc4OC)c23)C1` [Example 73, (7S) 7-Ethyl-N-isopropyl-4-[(6-methoxy-1H-indazol-5-yl)amino]-N-methyl-5,6,7,8-tetrahydro[1]benzothieno[2,3-d]pyrimidine-7-carboxamide] here?
A: 1.4 nM
